Measurements as given in patent US9675543B2, “Method of improving aging appearance of skin by modulation of WIPI-1” (Avon Products, Inc., priority 2012, dated 2017).

Tested on: WIPI-1
Test: WIPI-1 Screening, mRNA up-regulation in normal human keratinocytes (HEKa), Quantigene multiplex assay
Assay type: cell-based
Conditions: for HEKa Activity Level (percent up-regulation of WIPI-1 mRNA, scaled score): HEKa keratinocytes, 24 hours, vs vehicle control
Procedure: A variety of botanical extract and synthetic compounds were tested for the ability to up-regulate WIPI-1. Normal human dermal fibroblasts or keratinocytes were cultured in 96-well tissue culture treated plates, containing appropriate culture medium. Stock solutions of actives were made in an appropriate vehicle (water/Ethanol/DMSO). Cells were treated with test material or respective vehicle control diluted in growth medium for 24 hours in a humidified 37° C. incubator with 10% CO2. The concentrations of each extract are provided based on the dry weight of the given plant extract, by which is meant the weight of the extract after volatile extraction solvents have been removed. After incubation, growth medium from each plate was removed and 100 μL of lysis buffer was added to the wells and placed in 37° C. incubator with 10% CO2 for 30 minutes. At the end of incubation, the cells were collected in freezer plates and placed in −80° C. freezer, until analysis. Changes in mRNA after treatment were analysed using Panomics Quantigene multiplex assay that employs a branched DNA technology, following manufacturer's instructions (Affymetrix, CA). Percent increase (up-regulation) in mRNA for the WIPI-1 were calculated by comparing the test results to the control. The percent up-regulation is converted to a scaled score: 0: 0-20%; +: 21-40%; ++: 41-60%; +++: 61-80%; ++++: >80%.

Compound: CCOCCCNC(=O)c1coc(CN(CCCOCC)C(=O)c2ccc(Cl)cc2)n1 [Analog 1]
- HEKa Activity Level (percent up-regulation of WIPI-1 mRNA, scaled score) (concentration 0.001%): + (+: 21-40%)
- HEKa Activity Level (percent up-regulation of WIPI-1 mRNA, scaled score) (concentration 0.01%): + (+: 21-40%)
- WIPI-1 within keratinocytes upregulated (in words) (keratinocytes): upregulated
